ChEMBL document CHEMBL1132927, “New proline mimetics: synthesis of thrombin inhibitors incorporating cyclopentane- and cyclopentenedicarboxylic acid templates in the P2 position. Binding conformation investigated by X-ray crystallography” (J Med Chem, 2000)

Each molecule was assayed against Prothrombin (Homo sapiens, UniProt P00734) (assay: In vitro for the inhibition of thrombin).
An IC50 of 0.98 µM was found for `CCN(C(=O)C1=CCC[C@H]1C(=O)NCc1ccc(C(=N)N)cc1)c1ccccc1` in this work. An IC50 of 9.33 µM was found for `N=C(N)c1ccc(CNC(=O)[C@@H]2CCC=C2C(=O)NCC2CCCCC2)cc1` in this work. An IC50 of 20.4 µM was found for `COC(=O)[C@H](NC(=O)[C@@H]1CCC[C@H]1C(=O)NCc1ccc(C(=N)N)cc1)c1ccccc1` in this work. An IC50 of 6.03 µM was found for `N=C(N)c1ccc(CNC(=O)[C@@H]2CCC=C2C(=O)N2CCCCC2)cc1` in this work. An IC50 of 1.32 µM was found for `N=C(N)c1ccc(CNC(=O)[C@@H]2CCC[C@H]2C(=O)NC2CCCCC2)cc1` in this work. An IC50 greater than 132 µM was found for `N=C(N)c1ccc(CNC(=O)[C@@H]2CCC[C@H]2C(=O)N[C@@H](C(=O)O)c2ccccc2)cc1` in this work. An IC50 of 0.87 µM was found for `CCON(C(=O)C1=CCC[C@H]1C(=O)NCc1ccc(C(=N)N)cc1)C1CCCCC1` in this work. An IC50 greater than 132 µM was found for `N=C(N)c1ccc(CNC(=O)[C@H]2CCC[C@@H]2C(=O)NCc2ccccc2)cc1` in this work. An IC50 of 44.7 µM was found for `N=C(N)c1ccc(CNC(=O)[C@@H]2CCC[C@H]2C(=O)NCc2ccccc2)cc1` in this work. An IC50 of 1.51 µM was found for `N=C(N)c1ccc(CNC(=O)[C@@H]2CCC=C2C(=O)NC2CCCCC2)cc1` in this work.
